Experimental data taken from PubChem BioAssay AID256 (DTP/NCI, 2004).
Several values for one entry are separate records, joined by “and”; a condition that tells them apart may be missing. Identical values can stand only once. Inconclusive results and toxic doses are left out.

System: CD2F1 mice, L1210 leukemia ip, survival T/C
Test: NCI In Vivo Anticancer Drug Screen. Data for tumor model L1210 Leukemia (intraperitoneal) in CD2F1 (CDF1) mice
Conditions: higher = longer survival
Method in brief: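 Transplantable tumor in mice; compound-treated vs vehicle-treated groups. Read-out = treated/control ratio of the measured endpoint.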

[1] = endpoint: mean survival time, dose: 100.0 mg/kg/injection, schedule: Q04DX003 (ip), vehicle: saline with Tween-80
[2] = endpoint: mean survival time, dose: 200.0 mg/kg/injection, schedule: Q04DX003 (ip), vehicle: saline with Tween-80
[3] = endpoint: mean survival time, dose: 400.0 mg/kg/injection, schedule: Q04DX003 (ip), vehicle: saline with Tween-80
[4] = endpoint: mean survival time, dose: 100.0 mg/kg/injection, schedule: Q01DX009 (ip), vehicle: saline with Tween-80

In the case of `[O-][N+](=C(c1ccccc1)c1ccccc1)c1ccccc1`, the T/C (endpoint: mean survival time, dose: 75.0 mg/kg/injection, schedule: Q01DX009 (ip), vehicle: saline with Tween-80) is reported as 96 % of control, the T/C (endpoint: mean survival time, dose: 150.0 mg/kg/injection, schedule: Q01DX009 (ip), vehicle: saline with Tween-80) is reported as 94 % of control and the T/C (endpoint: mean survival time, dose: 300.0 mg/kg/injection, schedule: Q01DX009 (ip), vehicle: saline with Tween-80) is reported as 94 % of control.

`O=C(O)/C=C/S(=O)(=O)O` was tested, and the T/C (endpoint: mean survival time, dose: 9.5 mg/kg/injection, schedule: Q01DX001 (ip), vehicle: saline) was 96 % of control, the T/C (endpoint: mean survival time, dose: 19.0 mg/kg/injection, schedule: Q01DX001 (ip), vehicle: saline) was 98 % of control and the T/C (endpoint: mean survival time, dose: 38.0 mg/kg/injection, schedule: Q01DX001 (ip), vehicle: saline) was 98 % of control. The T/C (endpoint: mean survival time, dose: 75.0 mg/kg/injection, schedule: Q01DX001 (ip), vehicle: saline) was 100 % of control.

For `O=[N+]([O-])c1cc(C(F)(F)F)cc([N+](=O)[O-])c1Cl`, the T/C (endpoint: mean survival time, dose: 1.56 mg/kg/injection, schedule: Q04DX003 (ip), vehicle: Klucel (hydroxypropylcellulose) (HPC)) was 98 % of control and 101 % of control, the T/C (endpoint: mean survival time, dose: 3.12 mg/kg/injection, schedule: Q04DX003 (ip), vehicle: Klucel (hydroxypropylcellulose) (HPC)) was 98 % of control and 102 % of control and the T/C (endpoint: mean survival time, dose: 6.25 mg/kg/injection, schedule: Q04DX003 (ip), vehicle: Klucel (hydroxypropylcellulose) (HPC)) was 95 % of control and 98 % of control. For the same compound, the T/C (endpoint: mean survival time, dose: 12.5 mg/kg/injection, schedule: Q04DX003 (ip), vehicle: Klucel (hydroxypropylcellulose) (HPC)) was 90 % of control and 98 % of control.

In the case of `O=C1C=CC(=Nc2ccccc2Cl)O1`, the T/C [1] is reported as 103 % of control, the T/C [2] is reported as 101 % of control and the T/C [3] is reported as 100 % of control.

For `Nc1ncnc(N)c1NC(=O)c1ccc(Cl)c([N+](=O)[O-])c1`, the T/C [1] was 94 % of control, the T/C [2] was 93 % of control and the T/C [3] was 88 % of control.

With `CC(C)(C)C(=O)CC(=O)C(C)(C)C.CC(C)(C)C(=O)CC(=O)C(C)(C)C.CC(C)(C)C(=O)CC(=O)C(C)(C)C.[Sc]` the T/C (endpoint: mean survival time, dose: 50.0 mg/kg/injection, schedule: Q04DX003 (ip), vehicle: saline with Tween-80) was 94 % of control, the T/C [1] was 94 % of control and 100 % of control and the T/C [2] was 97 % of control and 104 % of control. For the same compound, the T/C [3] was 95 % of control.

In the case of `O=C(COc1ccccc1[N+](=O)[O-])CN1C(=O)c2ccccc2C1=O`, the T/C (endpoint: mean survival time, dose: 100.0 mg/kg/injection, schedule: Q04DX002 (ip), vehicle: saline with Tween-80) is reported as 91 % of control, the T/C (endpoint: mean survival time, dose: 200.0 mg/kg/injection, schedule: Q04DX002 (ip), vehicle: saline with Tween-80) is reported as 91 % of control and the T/C (endpoint: mean survival time, dose: 400.0 mg/kg/injection, schedule: Q04DX002 (ip), vehicle: saline with Tween-80) is reported as 91 % of control.

`CCCCOC(=O)/C=C(\Br)C(=O)OCCCC` was tested, and the T/C (endpoint: mean survival time, dose: 6.25 mg/kg/injection, schedule: Q01DX009 (ip), vehicle: saline with Tween-80) was 92 % of control and 96 % of control, the T/C (endpoint: mean survival time, dose: 12.5 mg/kg/injection, schedule: Q01DX009 (ip), vehicle: saline with Tween-80) was 94 % of control and 105 % of control and the T/C (endpoint: mean survival time, dose: 25.0 mg/kg/injection, schedule: Q01DX009 (ip), vehicle: saline with Tween-80) was 95 % of control and 100 % of control. For the same compound, the T/C (endpoint: mean survival time, dose: 50.0 mg/kg/injection, schedule: Q01DX009 (ip), vehicle: saline with Tween-80) was 100 % of control and the T/C [4] was 92 % of control.

`CN1c2c(nc(N)[nH]c2=O)NCC1CCNc1ccc(C(=O)NC(CCC(=O)O)C(=O)O)cc1` (centres undefined) was tested, and the T/C (endpoint: mean survival time, dose: 25.0 mg/kg/injection, schedule: Q01DX009 (ip), vehicle: Klucel (hydroxypropylcellulose) (HPC)) was 118 % of control, the T/C (endpoint: mean survival time, dose: 50.0 mg/kg/injection, schedule: Q01DX009 (ip), vehicle: Klucel (hydroxypropylcellulose) (HPC)) was 123 % of control and the T/C (endpoint: mean survival time, dose: 200.0 mg/kg/injection, schedule: Q01DX009 (ip), vehicle: sodium bicarbonate) was 119 % of control. The T/C (endpoint: mean survival time, dose: 1250.0 mg/kg/injection, schedule: Q01DX009 (ip), vehicle: sodium bicarbonate) was 155 % of control.

In the case of `CC1CC(C)(C)NC(c2ccccc2)O1` (centres undefined), the T/C [1] is reported as 94 % of control, the T/C [2] is reported as 94 % of control and the T/C [3] is reported as 102 % of control.

With `O=c1[nH]c(=O)n(C2CC(O)C(CO)O2)cc1CN1CCCC1` (centres undefined) the T/C (endpoint: mean survival time, dose: 6.25 mg/kg/injection, schedule: Q01DX005 (ip), vehicle: water) was 95 % of control, the T/C (endpoint: mean survival time, dose: 12.5 mg/kg/injection, schedule: Q01DX005 (ip), vehicle: water) was 109 % of control and the T/C (endpoint: mean survival time, dose: 25.0 mg/kg/injection, schedule: Q01DX005 (ip), vehicle: water) was 87 % of control. The T/C (endpoint: mean survival time, dose: 50.0 mg/kg/injection, schedule: Q01DX005 (ip), vehicle: water) was 102 % of control, the T/C (endpoint: mean survival time, dose: 100.0 mg/kg/injection, schedule: Q01DX005 (ip), vehicle: water) was 102 % of control and the T/C (endpoint: mean survival time, dose: 200.0 mg/kg/injection, schedule: Q01DX005 (ip), vehicle: water) was 96 % of control. For the same compound, the T/C (endpoint: mean survival time, dose: 400.0 mg/kg/injection, schedule: Q01DX005 (ip), vehicle: water) was 96 % of control.

`Cc1cc2nc(-c3ccccc3)c(-c3ccccc3)nc2cc1C` was tested, and the T/C [4] was 92 % of control, the T/C [1] was 94 % of control and the T/C (endpoint: mean survival time, dose: 200.0 mg/kg/injection, schedule: Q01DX009 (ip), vehicle: saline with Tween-80) was 92 % of control. For the same compound, the T/C [2] was 91 % of control, the T/C (endpoint: mean survival time, dose: 400.0 mg/kg/injection, schedule: Q01DX009 (ip), vehicle: saline with Tween-80) was 93 % of control and the T/C [3] was 95 % of control.

For `CN(C)CCC(=O)C(=Cc1ccc(O)cc1)C(=O)CCN(C)C`, the T/C (endpoint: median survival time, dose: 12.5 mg/kg/injection, schedule: Q01DX009 (ip), vehicle: saline) was 104 % of control, the T/C (endpoint: median survival time, dose: 25.0 mg/kg/injection, schedule: Q01DX009 (ip), vehicle: saline) was 101 % of control and the T/C (endpoint: median survival time, dose: 50.0 mg/kg/injection, schedule: Q01DX009 (ip), vehicle: saline) was 100 % of control. For the same compound, the T/C (endpoint: median survival time, dose: 100.0 mg/kg/injection, schedule: Q01DX009 (ip), vehicle: saline) was 97 % of control and the T/C (endpoint: median survival time, dose: 200.0 mg/kg/injection, schedule: Q01DX009 (ip), vehicle: saline) was 97 % of control.
